This passage reports IC50 results from patent US10316039B2, “P2X3 and/or P2X2/3 compounds and methods” (Asana Biosciences, LLC, priority 2013, dated 2019).

A word on the IC50: it is the concentration that inhibits the measured activity by half.

Assay [1] concerns the target T1, P2X2/3 (Homo sapiens, UniProt P56373+Q9UBL9).
T1 sequence (Q9UBL9 1-471): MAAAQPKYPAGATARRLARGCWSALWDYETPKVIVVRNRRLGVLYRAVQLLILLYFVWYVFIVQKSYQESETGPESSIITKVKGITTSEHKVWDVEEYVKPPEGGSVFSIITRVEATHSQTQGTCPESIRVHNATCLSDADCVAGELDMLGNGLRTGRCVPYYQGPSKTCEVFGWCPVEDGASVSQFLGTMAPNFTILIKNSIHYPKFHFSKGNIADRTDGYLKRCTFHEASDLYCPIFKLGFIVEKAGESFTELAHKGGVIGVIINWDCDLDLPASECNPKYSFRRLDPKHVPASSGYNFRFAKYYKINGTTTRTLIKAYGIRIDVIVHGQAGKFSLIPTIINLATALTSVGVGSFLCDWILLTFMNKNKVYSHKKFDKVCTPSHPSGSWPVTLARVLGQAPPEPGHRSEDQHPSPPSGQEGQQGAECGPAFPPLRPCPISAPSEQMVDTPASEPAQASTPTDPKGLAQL
T1 sequence (P56373 1-397): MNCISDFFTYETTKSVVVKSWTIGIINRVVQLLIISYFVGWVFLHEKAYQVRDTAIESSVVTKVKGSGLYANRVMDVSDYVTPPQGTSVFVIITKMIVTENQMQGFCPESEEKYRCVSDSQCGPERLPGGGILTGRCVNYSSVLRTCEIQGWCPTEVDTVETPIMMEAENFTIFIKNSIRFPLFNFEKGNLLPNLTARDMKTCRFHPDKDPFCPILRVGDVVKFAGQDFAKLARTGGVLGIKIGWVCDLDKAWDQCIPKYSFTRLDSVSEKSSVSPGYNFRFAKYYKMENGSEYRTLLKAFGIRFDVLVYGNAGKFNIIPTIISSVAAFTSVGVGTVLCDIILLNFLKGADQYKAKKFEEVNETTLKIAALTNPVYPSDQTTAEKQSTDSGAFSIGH
Briefly: P2X2/3 FLIPR intracellular calcium assay. Format: cell-based. The following applies: agonist at EC75, species (human or rat) not given. Summed up:
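Stable human P2X2/3 TRex293 cells (doxycycline-induced) loaded with Calcium 4 dye; compounds, 11-point half-log series from 2 mM top stock, preincubated 15 min at RT in HBSS/HEPES pH 7.4 with 1.8 mM CaCl2. Agonist added at EC75; fluorescence change versus no-compound wells gave IC50.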
For orientation: Calcium flux is commonly read through the fluorescence of an indicator in the cells.

For assay [2], the target named is T2, P2X3 (UniProt P56373).
T2 sequence (P56373 1-397): T1 sequence (P56373 1-397)
Briefly: P2X3 FLIPR intracellular calcium assay. Format: cell-based. The following applies: agonist at EC75, species (human or rat) not given. Summed up: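 Human P2X3-HEK, human P2X2/3-TRex293, rat P2X2/3-TRex293 or rat P2X3 TRex-CHO cells loaded with Calcium 4 dye (1.8 mM probenecid, pH 7.4).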

On to `Cc1cnc(CNC(=O)c2cc(-n3nnnc3C3CCC3)c3ncc(-c4ccc(C)s4)n3c2)cn1` [Example 164], for which the results for the 50% inhibitory concentration (IC50) in assay [1] and in assay [2] were 1 to 100 nM and over 10000 nM, respectively.

`Cc1ccc(-c2cnc3c(-n4nnnc4CC4CC4)cc(C(=O)N[C@@H](C)c4nnc[nH]4)cn23)s1` [Example 166]: the IC50 in assay [1] and in assay [2] was 1 to 100 nM each time.

Consider `Cc1ccc(-c2cnc3c(-n4nnnc4C(F)F)cc(C(=O)N[C@@H](C)c4nnc[nH]4)cn23)s1` [Example 168], for which the IC50 in assay [1] and in assay [2] was 1 to 100 nM throughout.

For the compound `COc1ncc(CNC(=O)c2cc(-n3nnnc3C(F)F)c3ncc(-c4ccc(C)s4)n3c2)cn1` [Example 169], the 50% inhibitory concentration (IC50) in assay [1] and in assay [2] was 1 to 100 nM throughout.

In the case of `C[C@H](NC(=O)c1cc(-n2nnnc2C(F)F)c2ncc(-c3ccc(Cl)s3)n2c1)c1nnc[nH]1` [Example 170], the IC50 in assay [1] and in assay [2] was 1 to 100 nM in each case.

Take `CC[C@H](NC(=O)c1cc(-n2nnnc2C(F)F)c2ncc(-c3ccc(C)s3)n2c1)c1nnc[nH]1` [Example 171]: the half-inhibitory concentration (IC50) in assay [1] and in assay [2] was 1 to 100 nM throughout.

Turning to `Cc1ncc(CNC(=O)c2cc(-n3nnnc3C(F)F)c3ncc(-c4ncc(C)s4)n3c2)cn1` [Example 172], the IC50 in assay [1] and in assay [2] was 1 to 100 nM throughout.

Consider `Cc1ccc(CNC(=O)c2cc(-n3nnnc3C(F)F)c3ncc(-c4ncc(C)s4)n3c2)cn1` [Example 173], for which the concentration for half-maximal inhibition (IC50) in assay [1] and in assay [2] was 100 to 1000 nM throughout.

`CC[C@H](NC(=O)c1cc(-n2nnnc2C(F)F)c2ncc(-c3ccc(Cl)s3)n2c1)c1nnc[nH]1` [Example 174]: the IC50 in assay [1] and in assay [2] was 1 to 100 nM throughout.

On to `C[C@H](NC(=O)c1cc(-n2nnnc2C2CC2)c2ncc(-c3ccc(Cl)s3)n2c1)c1nnc[nH]1` [Example 175], for which the results for the 50% inhibitory concentration (IC50) in assay [1] and in assay [2] were 1000 to 10000 nM and 100 to 1000 nM, respectively.

Consider `Cc1ncc(CNC(=O)c2cc(-n3nnnc3C(F)F)c3ncc(-c4ccc(Cl)s4)n3c2)cn1` [Example 176], for which the half-maximal inhibitory concentration (IC50) in assay [1] and in assay [2] was 100 to 1000 nM each time.

As to `Cc1ncc(CNC(=O)c2cc(-n3nnnc3C(F)F)c3ncc(-c4ccc(C)s4)n3c2)cn1` [Example 177], the IC50 in assay [1] and in assay [2] was 1 to 100 nM in each case.

Take `CCc1nnnn1-c1cc(C(=O)N[C@@H](C)c2nnc[nH]2)cn2c(-c3ccc(C)s3)cnc12` [Example 178]: the figures for the IC50 in assay [1] and in assay [2] were 100 to 1000 nM and 1 to 100 nM, respectively.

Turning to `CCCc1nnnn1-c1cc(C(=O)N[C@@H](C)c2nnc[nH]2)cn2c(-c3ccc(C)s3)cnc12` [Example 179], the 50% inhibitory concentration (IC50) in assay [1] and in assay [2] was 1 to 100 nM throughout.

Turning to `Cc1nnc([C@@H](C)NC(=O)c2cc(-n3nnnc3C(F)F)c3ncc(-c4ccc(C)s4)n3c2)o1` [Example 180], the IC50 in assay [1] and in assay [2] was 1 to 100 nM in each case.

As for `Cc1ccc(-c2cnc3c(-n4nnnc4CC(F)(F)F)cc(C(=O)N[C@@H](C)c4nnc[nH]4)cn23)s1` [Example 181], the concentration for half-maximal inhibition (IC50) in assay [1] and in assay [2] was 1 to 100 nM each time.

For the compound `Cc1ccc(-c2cnc3c(-n4nnnc4C(C)(F)F)cc(C(=O)N[C@@H](C)c4nnc[nH]4)cn23)s1` [Example 182], the IC50 in assay [1] and in assay [2] was 1 to 100 nM throughout.

Regarding `Cc1ncc(CNC(=O)c2cc(-n3nnnc3C(F)F)c3ncc(-c4ccc(C)o4)n3c2)cn1` [Example 183], the IC50 in assay [1] and in assay [2] was 100 to 1000 nM in each case.

In the case of `C[C@H](NC(=O)c1cc(-n2nnnc2C(C)(F)F)c2ncc(-c3ccc(Cl)s3)n2c1)c1nnc[nH]1` [Example 184], the IC50 in assay [1] and in assay [2] was 1 to 100 nM each time.

As to `Cc1cnc(CNC(=O)c2cc(-n3nnnc3C(F)F)c3ncc(-c4ncc(C)s4)n3c2)cn1` [Example 185], the half-maximal inhibitory concentration (IC50) in assay [1] was in the range of 1000 to 10000 nM; in assay [2], 100 to 1000 nM.

As for `Cc1noc([C@@H](C)NC(=O)c2cc(-n3nnnc3C(C)(F)F)c3ncc(-c4ccc(C)s4)n3c2)n1` [Example 186], the IC50 in assay [1] was 1 to 100 nM; in assay [2], over 10000 nM.

Turning to `CCC(=O)N(C)c1cc(C(=O)N[C@@H](C)c2nnc[nH]2)cn2c(-c3ccc(C)s3)cnc12` [Example 187], the results for the 50% inhibitory concentration (IC50) in assay [1] and in assay [2] were 100 to 1000 nM and 1 to 100 nM, respectively.

In the case of `CCC(=O)N(c1cc(C(=O)N[C@@H](C)c2nnc[nH]2)cn2c(-c3ccc(C)s3)cnc12)C1CC1` [Example 188], the results for the IC50 in assay [1] and in assay [2] were 100 to 1000 nM and 1 to 100 nM, respectively.
